Test results from ChEMBL document CHEMBL3352261, “Discovery of inhibitors of the mitotic kinase TTK based on N-(3-(3-sulfamoylphenyl)-1H-indazol-5-yl)-acetamides and carboxamides” (Bioorg Med Chem, 2014).

Columns and labels:
[1] = target: T1, Dual specificity protein kinase TTK (Homo sapiens, UniProt P33981); experiment: Inhibition of SUMO-tagged human TTK (1-275 residues) compound pre-incubated for 15 mins prior ATP addition by MBP-based assay
T1 sequence (P33981 whole entry): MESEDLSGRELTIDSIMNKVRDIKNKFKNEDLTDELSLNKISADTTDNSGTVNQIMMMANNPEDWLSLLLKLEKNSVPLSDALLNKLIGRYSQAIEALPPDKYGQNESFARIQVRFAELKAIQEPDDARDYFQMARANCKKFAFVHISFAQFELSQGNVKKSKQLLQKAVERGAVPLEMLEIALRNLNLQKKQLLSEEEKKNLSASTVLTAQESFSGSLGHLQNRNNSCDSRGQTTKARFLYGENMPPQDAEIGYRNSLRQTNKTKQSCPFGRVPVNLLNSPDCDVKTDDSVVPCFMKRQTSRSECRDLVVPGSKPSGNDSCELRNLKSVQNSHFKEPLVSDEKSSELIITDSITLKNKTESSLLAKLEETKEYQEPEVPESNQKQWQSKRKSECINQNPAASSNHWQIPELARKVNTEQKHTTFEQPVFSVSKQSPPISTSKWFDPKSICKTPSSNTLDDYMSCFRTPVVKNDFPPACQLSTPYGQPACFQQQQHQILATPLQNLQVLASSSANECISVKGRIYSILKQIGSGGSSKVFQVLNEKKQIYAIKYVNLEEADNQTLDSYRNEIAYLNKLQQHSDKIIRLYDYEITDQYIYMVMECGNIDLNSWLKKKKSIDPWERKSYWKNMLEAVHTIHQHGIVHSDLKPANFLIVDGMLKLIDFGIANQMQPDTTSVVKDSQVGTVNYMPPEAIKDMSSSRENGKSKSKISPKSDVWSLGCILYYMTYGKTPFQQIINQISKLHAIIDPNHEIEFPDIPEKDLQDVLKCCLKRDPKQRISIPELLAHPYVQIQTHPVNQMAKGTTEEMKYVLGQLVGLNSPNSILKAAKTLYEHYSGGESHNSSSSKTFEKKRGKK

[2] = Growth inhibition of human HCT116 cells after 5 days by SRB assay; assay type: functional; settings: HCT-116, 120 h
[3] = target: T1, Dual specificity protein kinase TTK; experiment: Inhibition of GST-fused full length human TTK compound pre-incubated for 15 mins prior ATP addition by MBP-based assay
MDA-MB-468 = experiment: Growth inhibition of human MDA-MB-468 cells after 5 days by SRB assay; assay type: functional; settings: MDA-MB-468, 120 h
A549 = experiment: Growth inhibition of human A549 cells after 5 days by SRB assay; assay type: functional; settings: A549, 120 h

SMILES | IC50 [1] [nM] | IC50 [3] [nM] | GI50 (MDA-MB-468) [nM] | GI50 (A549) [nM] | GI50 [2] [nM]
NS(=O)(=O)c1cccc(-c2n[nH]c3ccc(NC(=O)Nc4ccccc4)cc23)c1 | 390 |  |  |  | 41000
COc1cc(N2CCC(O)CC2)ccc1Nc1nc(Nc2ccccc2S(=O)(=O)C(C)C)c2cc[nH]c2n1 |  | 370 |  |  | 
NS(=O)(=O)c1cccc(-c2n[nH]c3ccc(-c4ccccc4)cc23)c1 | 4300 |  |  |  | 
NS(=O)(=O)c1cccc(-c2n[nH]c3cc(NC(=O)c4cccs4)ccc23)c1 | 4300 |  |  |  | 
CCc1cccc(CC)c1NS(=O)(=O)Nc1ccc2[nH]nc(-c3cccc(S(N)(=O)=O)c3)c2c1 | 2600 |  |  |  | 50000
NS(=O)(=O)c1cccc(-c2n[nH]c3ccc(NC(=O)CCc4ccccc4)cc23)c1 | 980 |  |  |  | > 50000
CC(=O)Nc1ccc2c(-c3cccc(S(N)(=O)=O)c3)n[nH]c2c1 | 18000 |  |  |  | 
NS(=O)(=O)c1cccc(-c2n[nH]c3ccc(OCc4ccccc4)cc23)c1 | 580 |  |  |  | 
Cc1ccccc1NC(=O)Cc1ccc2[nH]nc(-c3cccc(S(N)(=O)=O)c3)c2c1 | > 5000 |  |  |  | > 50000
NS(=O)(=O)c1cccc(-c2n[nH]c3ccccc23)c1 | 1600 | 2600 |  |  | 
Cc1cccc(CS(=O)(=O)Nc2ccc3[nH]nc(-c4cccc(S(N)(=O)=O)c4)c3c2)c1 | 330 |  |  |  | 28000
CNC(=O)c1ccc2c(-c3cccc(S(N)(=O)=O)c3)n[nH]c2c1 | 11000 |  |  |  | 
COc1cccc2[nH]nc(-c3cccc(S(N)(=O)=O)c3)c12 | 2300 |  |  |  | 
O=Cc1ccc2c(-c3cccnc3)n[nH]c2c1 |  | 12000 |  |  | 
NC(=O)c1cccc(-c2n[nH]c3cccc(Cl)c23)c1 |  | 17000 |  |  | 
NS(=O)(=O)c1cccc(-c2n[nH]c3ccc(CNC(=O)c4ccccc4)cc23)c1 | 550 |  |  |  | 700

SMILES | IC50 [1] [nM] | IC50 [3] [nM] | GI50 (MDA-MB-468) [nM] | GI50 (A549) [nM] | GI50 [2] [nM]
NCc1cccc(-c2n[nH]c3cccc(Cl)c23)c1 |  | > 50000 |  |  | 
NS(=O)(=O)c1cccc(-c2n[nH]c3ccc(NC(=O)Cc4ccncc4)cc23)c1 | 340 |  |  |  | 50000
NS(=O)(=O)c1cccc(-c2n[nH]c3cccc(-c4c(F)cccc4F)c23)c1 | 1400 |  |  |  | 
NS(=O)(=O)c1ccc(-c2n[nH]c3cccc(Cl)c23)cc1 |  | 18000 |  |  | 
NS(=O)(=O)c1cccc(-c2n[nH]c3ccc(NS(=O)(=O)Nc4ccccc4)cc23)c1 | 710 |  |  |  | 6890
COc1ccc2[nH]nc(-c3cccc(S(N)(=O)=O)c3)c2c1 | 600 |  |  |  | 
CCc1cccc(CC)c1NC(=O)N(C)c1ccc2[nH]nc(-c3cccc(S(N)(=O)=O)c3)c2c1 | > 50000 |  |  |  | > 50000
NS(=O)(=O)c1cccc(-c2n[nH]c3ccc(OCCc4cccs4)cc23)c1 | 380 |  |  |  | 750
CC(=O)Nc1ccc2[nH]nc(-c3cccc(S(N)(=O)=O)c3)c2c1 | 640 |  |  |  | 
NS(=O)(=O)c1cccc(-c2n[nH]c3cccc(Cl)c23)c1 | 1900 | 1800 |  |  | 
NS(=O)(=O)c1cccc(-c2n[nH]c3ccc(NC(=O)C4(c5ccccc5)CC4)cc23)c1 | 310 |  |  |  | 7300
N#Cc1ccc2c(/C=C/c3ccncc3)n[nH]c2c1 |  | 5000 |  |  | 
NS(=O)(=O)c1cccc(-c2n[nH]c3cc(-c4ccccc4)ccc23)c1 | 5400 |  |  |  | 
Oc1c2ccccc2c2c3c(cccc13)N=N2 [SP-600125] |  | 2500 |  |  | 
NS(=O)(=O)c1cccc(-c2n[nH]c3ccc(NS(=O)(=O)c4cccs4)cc23)c1 | 340 |  |  |  | 3400
NS(=O)(=O)c1cccc(-c2n[nH]c3ccc(NC(=O)c4cccs4)cc23)c1 | 280 |  |  |  | 

Further compounds by falling IC50 [1], results first:

IC50 [1] [nM] | IC50 [3] [nM] | GI50 (MDA-MB-468) [nM] | GI50 (A549) [nM] | SMILES | GI50 [2] [nM]
250 |  |  |  | CN(Cc1ccccc1)C(=O)c1ccc2[nH]nc(-c3cccc(S(N)(=O)=O)c3)c2c1 | 180
90 |  |  |  | NS(=O)(=O)c1cccc(-c2n[nH]c3ccc(C(=O)NCc4ccccc4)cc23)c1 | 1800
90 |  |  |  | NS(=O)(=O)c1cccc(-c2n[nH]c3ccc(NC(=O)Cc4ccccn4)cc23)c1 | 6890
80 |  |  |  | CCc1cccc(CC)c1CNC(=O)c1ccc2[nH]nc(-c3cccc(S(N)(=O)=O)c3)c2c1 | 700
61 |  |  |  | NS(=O)(=O)c1cccc(-c2n[nH]c3ccc(NC(=O)C(c4ccccc4)C4CCCCC4)cc23)c1 (racemic) | 430
53 |  |  |  | NS(=O)(=O)c1cccc(-c2n[nH]c3ccc(NC(=O)C(c4ccccc4)C4CCCC4)cc23)c1 (racemic) | 630
47 |  |  |  | NS(=O)(=O)c1cccc(-c2n[nH]c3ccc(C(=O)NC(c4ccccc4)C4CCCCC4)cc23)c1 (racemic) | 810
46 |  |  |  | CC(C)C(C(=O)Nc1ccc2[nH]nc(-c3cccc(S(N)(=O)=O)c3)c2c1)c1ccccc1 (racemic) | 
39 |  |  |  | NS(=O)(=O)c1cccc(-c2n[nH]c3ccc(NC(=O)Cc4ccccc4)cc23)c1 | 21000
35 |  |  |  | NS(=O)(=O)c1cccc(-c2n[nH]c3ccc(C(=O)NC4(c5ccccc5)CC4)cc23)c1 | 3300
33 |  |  |  | NS(=O)(=O)c1cccc(-c2n[nH]c3ccc(C(=O)NCc4cccs4)cc23)c1 | 1800
30 |  | 3200 | 2400 | CO[C@@H](C(=O)Nc1ccc2[nH]nc(-c3cccc(S(N)(=O)=O)c3)c2c1)c1ccccc1 | 850
26 |  | 2200 | 3600 | CO[C@H](C(=O)Nc1ccc2[nH]nc(-c3cccc(S(N)(=O)=O)c3)c2c1)c1ccccc1 | 800
26 |  | 2200 | 2500 | COC(C(=O)Nc1ccc2[nH]nc(-c3cccc(S(N)(=O)=O)c3)c2c1)c1ccccc1 (racemic) | 1060
25 |  |  |  | Cc1ccccc1CC(=O)Nc1ccc2[nH]nc(-c3cccc(S(N)(=O)=O)c3)c2c1 | 1800
24 |  |  |  | CCC(C(=O)Nc1ccc2[nH]nc(-c3cccc(S(N)(=O)=O)c3)c2c1)c1ccccc1 (racemic) | 1300
18 |  |  |  | Cc1ccccc1CNC(=O)c1ccc2[nH]nc(-c3cccc(S(N)(=O)=O)c3)c2c1 | 1800
17 |  |  |  | CCc1cccc(CC)c1CC(=O)Nc1ccc2[nH]nc(-c3cccc(S(N)(=O)=O)c3)c2c1 | 180
16 |  |  |  | NS(=O)(=O)c1cccc(-c2n[nH]c3ccc(NC(=O)Cc4cccs4)cc23)c1 | 2900
16 |  |  |  | NS(=O)(=O)c1cccc(-c2n[nH]c3ccc(C(=O)NC(c4ccccc4)C4CC4)cc23)c1 (racemic) | 
15 |  | 1300 | 3400 | CN(C)[C@@H](C(=O)Nc1ccc2[nH]nc(-c3cccc(S(N)(=O)=O)c3)c2c1)c1ccccc1 | 1100
14 |  | 1400 | 800 | CCOC(C(=O)Nc1ccc2[nH]nc(-c3cccc(S(N)(=O)=O)c3)c2c1)c1ccccc1 (racemic) | 400
12 |  | 1400 | 1700 | CN(C)C(C(=O)Nc1ccc2[nH]nc(-c3cccc(S(N)(=O)=O)c3)c2c1)c1ccccc1 (racemic) | 660
11 |  | 840 | 830 | CN(C)[C@H](C(=O)Nc1ccc2[nH]nc(-c3cccc(S(N)(=O)=O)c3)c2c1)c1ccccc1 | 520
10 |  | 690 | 400 | NS(=O)(=O)c1cccc(-c2n[nH]c3ccc(NC(=O)C(c4ccccc4)N4CCCCC4)cc23)c1 (racemic) | 270
8.9 |  | 350 | 230 | NS(=O)(=O)c1cccc(-c2n[nH]c3ccc(NC(=O)C(c4ccccc4)N4CCCC4)cc23)c1 (racemic) | 110
4 |  |  |  | NS(=O)(=O)c1cccc(-c2n[nH]c3ccc(C(=O)NC(c4ccsc4)C4CC4)cc23)c1 (racemic) | 610
